Source: US20220153741A1, “HETEROCYCLIC COMPOUNDS AS INHIBITORS OF KRAS G12C” (Guangdong Newopp Biopharmaceuticals Co., Ltd., priority 2019, published 2022)
Like-named read-outs stand apart in the source and are kept apart here.

How the values were obtained:
[1] = from CC(C)c1nccc(CCC(=O)O)c1-n1c(=O)[nH]c(=O)c2cc(F)c(-c3c(N)cccc3Cl)nc21; amide bond; 12-membered ring; T3P; DCE; 39.3 mM; 50.0 °C
[2] = amide bond

`CC(C)c1nccc2c1-n1c(=O)[nH]c(=O)c3cc(F)c(nc31)-c1c(Cl)cccc1NC(=O)CC2` showed a ring closure, isolated yield [1] of 29% and a ring closure, yield of all isomers ([2]; from CC(C)c1nccc(CCC(=O)O)c1-n1c(=O)[nH]c(=O)c2cc(F)c(-c3c(N)cccc3Cl)nc21, T3P, DCE, 39.3 mM, 50.0 °C, 1.0 h) of 29%.
For `CC(C)c1nccc2c1-n1c(=O)[nH]c(=O)c3cc(F)c(nc31)-c1c(F)cccc1NC(=O)CCS2`, the ring closure, yield of all isomers ([2]; from CC(C)c1nccc(SCCC(=O)O)c1-n1c(=O)[nH]c(=O)c2cc(F)c(-c3c(N)cccc3F)nc21, T3P, DCE, 58.3 mM, 55.0 °C, 16.0 h) was 37.4%.
For `CC(C)c1nccc2c1-n1c(=O)nc(O)c3cc(F)c(nc31)-c1c(F)cccc1NC(=O)CC2`, the ring closure, yield of all isomers ([2]; from CC(C)c1nccc(CCC(=O)O)c1-n1c(=O)nc(O)c2cc(F)c(-c3c(N)cccc3F)nc21, TCFH/NMI, DMF, 37.0 mM, 25.0 °C, 1.0 h) was 46.7%.
`CC(C)c1nccc2c1-n1c(=O)nc(O)c3cc(F)c(nc31)-c1c(F)cccc1NC(=O)CS2` showed a ring closure, yield of all isomers ([2]; from CC(C)c1nccc(SCC(=O)OC(C)(C)C)c1-n1c(=O)nc(O)c2cc(F)c(-c3c(N)cccc3F)nc21, TCFH/N-methylimidazole, DMF, 7.2 mM, 25.0 °C, 1.0 h, 2 steps) of 44.4%.
